Drawing on patent US20230089867A1, “CYCLIC PENTAMER COMPOUNDS AS PROPROTEIN CONVERTASE SUBTILISIN/KEXIN TYPE 9 (PCSK9) INHIBITORS FOR THE TREATMENT OF METABOLIC DISORDER” (Novartis AG, priority 2018, published 2023), this text covers Max % inhibition and IC50 for ten molecules.

Molecules are shown by their SMILES.

The target in this assay is human PCSK9 (Homo sapiens, UniProt Q8NBP7). Kind of assay: PCSK9 ligand binding TR-FRET assay (interference with binding of human PCSK9 to human LDLR). To be noted: for Max % inhibition: PCSK9 FRET assay, efficacy (Amax), 100% = 1 uM unlabeled human PCSK9, 0% = DMSO; for IC50: TR-FRET, human PCSK9 Alexa Fluor 647 / human LDLR extracellular domain-Europium Kryptate, read-out: PCSK9 FRET Assay IC50. In outline: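 Threefold compound dilutions were pre-incubated 30 min with PCSK9, after which 4 nM Europium Kryptate-tagged human LDLR ectodomain was added for a further 2 h.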
human PCSK9, sequence (Q8NBP7 153-692): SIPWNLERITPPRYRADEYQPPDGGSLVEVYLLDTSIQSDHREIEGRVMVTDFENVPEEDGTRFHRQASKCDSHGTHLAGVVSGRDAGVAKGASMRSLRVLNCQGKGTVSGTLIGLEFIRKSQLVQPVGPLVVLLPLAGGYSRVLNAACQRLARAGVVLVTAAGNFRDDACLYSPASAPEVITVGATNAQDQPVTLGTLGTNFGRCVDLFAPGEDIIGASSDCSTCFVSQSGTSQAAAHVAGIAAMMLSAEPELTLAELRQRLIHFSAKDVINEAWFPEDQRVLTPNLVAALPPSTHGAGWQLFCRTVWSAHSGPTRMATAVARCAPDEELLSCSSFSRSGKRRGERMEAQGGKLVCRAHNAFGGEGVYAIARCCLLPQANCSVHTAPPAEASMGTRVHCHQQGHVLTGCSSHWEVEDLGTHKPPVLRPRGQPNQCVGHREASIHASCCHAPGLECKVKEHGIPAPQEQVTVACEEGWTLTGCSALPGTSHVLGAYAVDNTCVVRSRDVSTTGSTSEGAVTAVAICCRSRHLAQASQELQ
human PCSK9, sequence (Q8NBP7 31-152 partner limits assumed): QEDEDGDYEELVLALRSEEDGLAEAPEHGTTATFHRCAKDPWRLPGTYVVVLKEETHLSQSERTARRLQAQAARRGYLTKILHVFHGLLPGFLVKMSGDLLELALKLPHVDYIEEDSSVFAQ

Turning to `COC[C@@H]1NC(=O)[C@H](C)N(Cc2ccc(F)cc2Oc2ccc(-c3cnc(CN(C)C)n3C)cc2)C(=O)C[C@@H](Cc2ccccc2)C(=O)N(C)[C@H]2CCCC[C@@H]2NC(=O)C[C@H](Cc2ccc(Cl)cc2)N(C)C1=O` [Compound 48, (4S,7S,10S,14R,16aS,20aS)-14-benzyl-4-(4-chlorobenzyl)-11-(2-(4-(2-((dimethylamino)methyl)-1-methyl-1H-imidazol-5-yl)phenoxy)-4-fluorobenzyl)-7-(methoxymethyl)-5,10,16-trimethylhexadecahydrobenzo[l][1,4,7,11,14]pentaazacyclooctadecine-2,6,9,12,15(3H)-pentaone], the Max % inhibition stood at 87.82% and the IC50 (as a rule, the midpoint of a concentration-inhibition curve) was found to be 4.8 nM.
As to `[2H]C([2H])([2H])N(Cc1ncc(-c2ccc(Oc3cc(Cl)ccc3CN3C(=O)C[C@@H](Cc4ccccc4)C(=O)N(C)[C@@H](C)CNC(=O)C[C@H](Cc4ccc(Cl)cc4)N(C)C(=O)[C@H](COC)NC(=O)[C@@H]3CC)cc2)n1C)C([2H])([2H])[2H]` [Compound 49, (2S,5S,8S,13S,16R)-16-benzyl-1-(2-(4-(2-((bis(methyl-d3)amino)methyl)-1-methyl-1H-imidazol-5-yl)phenoxy)-4-chlorobenzyl)-8-(4-chlorobenzyl)-2-ethyl-5-(methoxymethyl)-7,13,14-trimethyl-1,4,7,11,14-pentaazacyclooctadecane-3,6,10,15,18-pentaone], the Max % inhibition amounted to 99.12% and the IC50 came to 1.7 nM.
For `COC[C@@H]1NC(=O)[C@H](C)N(Cc2ccc(Cl)cc2Oc2ccc(-c3cnc(CN(C)C)n3C)cc2)C(=O)C[C@@H](Cc2ccccc2)C(=O)N(C)C(C)C(C)NC(=O)C[C@H](Cc2ccc(Cl)cc2)N(C)C1=O` (stereo partly drawn) [Compound 50, (2S,5S,8S,16R)-16-benzyl-1-(4-chloro-2-(4-(2-((dimethylamino)methyl)-1-methyl-1H-imidazol-5-yl)phenoxy)benzyl)-8-(4-chlorobenzyl)-5-(methoxymethyl)-2,7,12,13,14-pentamethyl-1,4,7,11,14-pentaazacyclooctadecane-3,6,10,15,18-pentaone] the same measures were 101.21% and 41 nM.
The like results for `COC[C@@H]1NC(=O)[C@H](C)N(Cc2ccc(Cl)cc2Oc2cc(F)c(-c3cnc(CN4CCCC4)n3C)c(F)c2)C(=O)C[C@@H](Cc2ccccc2)C(=O)N(C)[C@@H](C)CNC(=O)C[C@H](Cc2ccc(Cl)cc2)N(C)C1=O` [Compound 51, (2S,5S,8S,13S,16R)-16-benzyl-1-(4-chloro-2-(3,5-difluoro-4-(1-methyl-2-(pyrrolidin-1-ylmethyl)-1H-imidazol-5-yl)phenoxy)benzyl)-8-(4-chlorobenzyl)-5-(methoxymethyl)-2,7,13,14-tetramethyl-1,4,7,11,14-pentaazacyclooctadecane-3,6,10,15,18-pentaone] were, in that order, 94.86% and 0.5 nM.
The like results for `COC[C@@H]1NC(=O)[C@H](CCF)N(Cc2ccc(Cl)cc2Oc2ccc(-c3cnc(CN4CCCC4)n3C)cc2)C(=O)C[C@@H](Cc2ccccc2)C(=O)N(C)[C@@H](C)CNC(=O)C[C@H](Cc2ccc(Cl)cc2)N(C)C1=O` [Compound 54, (2S,5S,8S,13S,16R)-16-benzyl-1-(4-chloro-2-(4-(1-methyl-2-(pyrrolidin-1-ylmethyl)-1H-imidazol-5-yl)phenoxy)benzyl)-8-(4-chlorobenzyl)-2-(2-fluoroethyl)-5-(methoxymethyl)-7,13,14-trimethyl-1,4,7,11,14-pentaazacyclooctadecane-3,6,10,15,18-pentaone] were, in that order, 92.54% and 4.6 nM.
On to `COC[C@@H]1NC(=O)[C@H](C)N(Cc2ccc(Cl)cc2Oc2ccc(-c3c(C)nc(CN4CCCC4)n3C)cc2)C(=O)C[C@@H](Cc2ccccc2)C(=O)N(C)[C@@H](C)CNC(=O)C[C@H](Cc2ccc(Cl)cc2)N(C)C1=O` [Compound 55, (2S,5S,8S,13S,16R)-16-benzyl-1-(4-chloro-2-(4-(1,4-dimethyl-2-(pyrrolidin-1-ylmethyl)-1H-imidazol-5-yl)phenoxy)benzyl)-8-(4-chlorobenzyl)-5-(methoxymethyl)-2,7,13,14-tetramethyl-1,4,7,11,14-pentaazacyclooctadecane-3,6,10,15,18-pentaone], for which the Max % inhibition is 58.77% and the IC50 was 9.3 nM.
Regarding `COC[C@@H]1NC(=O)[C@H](C)N(Cc2ccc(Cl)cc2Oc2ccc(-c3cnc(CN(C)C)n3C)cc2)C(=O)C[C@@H](Cc2cccc(C(F)F)c2)C(=O)N(C)[C@@H](C)CNC(=O)C[C@H](Cc2ccc(Cl)cc2)N(C)C1=O` [Compound 56, (2S,5S,8S,13S,16R)-1-(4-chloro-2-(4-(2-((dimethylamino)methyl)-1-methyl-1H-imidazol-5-yl)phenoxy)benzyl)-8-(4-chlorobenzyl)-16-(3-(difluoromethyl)benzyl)-5-(methoxymethyl)-2,7,13,14-tetramethyl-1,4,7,11,14-pentaazacyclooctadecane-3,6,10,15,18-pentaone], the Max % inhibition was 101.80% and the IC50 was 2.6 nM.
For the molecule `COC[C@@H]1NC(=O)[C@H](C)N(Cc2ccc(Cl)cc2Oc2ccc(-c3cnc(CN(C)C)n3C)cc2)C(=O)C[C@@H](Cc2ccc(C(F)F)cc2)C(=O)N(C)[C@@H](C)CNC(=O)C[C@H](Cc2ccc(Cl)cc2)N(C)C1=O` [Compound 57, (2S,5S,8S,13S,16R)-1-(4-chloro-2-(4-(2-((dimethylamino)methyl)-1-methyl-1H-imidazol-5-yl)phenoxy)benzyl)-8-(4-chlorobenzyl)-16-(4-(difluoromethyl)benzyl)-5-(methoxymethyl)-2,7,13,14-tetramethyl-1,4,7,11,14-pentaazacyclooctadecane-3,6,10,15,18-pentaone], the Max % inhibition is 95.83% and the IC50 is 2.1 nM.
As to `COC[C@@H]1NC(=O)[C@H](C)N(Cc2ccc(Cl)cc2Oc2ccc(-c3cnc(CN4CC[C@@H](F)C4)n3C)cc2)C(=O)C[C@@H](Cc2ccccc2)C(=O)N(C)[C@@H](C)CNC(=O)C[C@H](Cc2ccc(Cl)cc2)N(C)C1=O` [Compound 60, (2S,5S,8S,13S,16R)-16-benzyl-1-(4-chloro-2-(4-(2-(((R)-3-fluoropyrrolidin-1-yl)methyl)-1-methyl-1H-imidazol-5-yl)phenoxy)benzyl)-8-(4-chlorobenzyl)-5-(methoxymethyl)-2,7,13,14-tetramethyl-1,4,7,11,14-pentaazacyclooctadecane-3,6,10,15,18-pentaone], the Max % inhibition is on record as 82.23% and the 50% inhibitory concentration (IC50) stood at 2.9 nM.
On to `COC[C@@H]1NC(=O)[C@H](C)N(Cc2ccc(Cl)cc2Oc2ccc(-c3cnc(CN(C)C)n3C)cc2)C(=O)C[C@@H](Cc2ccccc2)C(=O)N(C)C2CCOCC2NC(=O)CC(Cc2ccc(Cl)cc2)N(C)C1=O` (stereo partly drawn) [Compound 61, (4S,7S,10S,14R)-14-benzyl-11-(4-chloro-2-(4-(2-((dimethylamino)methyl)-1-methyl-1H-imidazol-5-yl)phenoxy)benzyl)-4-(4-chlorobenzyl)-7-(methoxymethyl)-5,10,16-trimethyltetradecahydro-1H-pyrano[3,4-1][1,4,7,11,14]pentaazacyclooctadecine-2,6,9,12,15(3H)-pentaone], for which the Max % inhibition is recorded as 99.31% and the IC50 came to 1.4 nM.
